Measured values as given in US20230312582A1, “Salts Of Nitrogen-Containing Heterocyclic Compound, And Solid Forms Of Salts, Pharmaceutical Composition And Use Thereof” (Wuhan Humanwell Innovative Drug Research And Development …, priority 2020, published 2023).
Read-outs that look alike come from different tables or passages of the source.

Columns and labels:
[1] = In vivo pharmacokinetic assay in mice; details: male, ICR, mouse, plasma
Procedure: (§1) In vivo pharmacokinetic assay in rats was performed, wherein the used rats were 6 male SD rats weighing 180-240 g and fasted overnight. […] Blood samples were centrifuged at 8000 rpm for 6 min at 4° C., and plasma was collected and stored at −20° C. The plasma at each time point was taken and added with 3-5 times of acetonitrile solution containing the internal standard for mixing, and the mixed solution was subjected to vortex mixing for 1 min, and centrifuging at 4° C. for 10 min at 13000 rpm. The supernatant was taken and added with 3 times of water for mixing. A proper amount of the mixed solution was taken for LC-MS/MS analysis. The major pharmacokinetic parameters were analyzed using WinNonlin 7.0 software and a non-compartmental model.
In vivo pharmacokinetic assay in mice was performed, wherein the used mice were 18 male ICR mice weighing 20-25 g and fasted overnight. […] The rest of the procedure was performed in the same manner as in the pharmacokinetic assay in rats.

[2] = tested on: Bleomycin-induced IPF model; assay: Bleomycin-induced IPF model in rats; type: in vivo; details: 30 mg/kg oral twice a day, 21 days
Procedure: The bleomycin-induced IPF model (idiopathic pulmonary fibrosis model) was performed at a dose of 5 U/kg using male BN rats weighing 180-240 g. […] The oral intragastric administration was performed twice a day on the second day after the modeling. The administration group was given a dose of 30 mg/kg at one time, and the vehicle control group was given blank vehicle for 21 consecutive days. During dosing, body weights were weighed every three days. On the 21st day of administration, bronchoalveolar lavage was performed 2 h after the first administration, the inflammatory cells in the lavage fluid were counted, and the relevant biomarkers in the lavage fluid supernatant were detected; after lavage, the left lung of the rat was harvested for fixation, and Masson's trichrome staining was used for pathological scoring of fibrosis and the remaining lung lobes were cryopreserved. The bronchoalveolar lavage fluid supernatant and freshly cryopreserved lung tissue of compound 3 group were taken, and the TGF-β1 protein content and total protein amount were detected by ELISA method, and the amount of TGF-β1 per mg of total protein was calculated.

[3] = In vivo pharmacokinetic assay in rats
Procedure: as §1

[4] = Thermodynamic solubility assay; type: physicochemical; details: thermodynamic from solid
Procedure: The compounds were weighed out accurately, added to the prepared phosphate buffered saline at pH 7.4, FeSSIF solution at pH 5.8 and FaSSGF solution at pH 1.6 to prepare a solution at a concentration of 4 mg/mL, and the prepared solution was shaken at 1000 rpm for 1 h, and then incubated overnight at room temperature. The incubated solution was centrifuged at 12000 rpm for 10 min to remove undissolved particles, and the supernatant was transferred to a new centrifuge tube. After the supernatant was diluted properly, the supernatant was added with an acetonitrile solution containing an internal standard, and quantified by adopting a standard curve prepared by the same matrix.

[5] = molecular target: ATX enzymatic activity in human plasma (Homo sapiens (Human), UniProt Q13822); assay: biochemical
Procedure: Whole blood from healthy volunteers was collected and anticoagulated with heparin. The blood collection tubes were centrifuged at 3000 rpm for 10 min, and plasma was taken and stored at −80° C. for later use.
The compounds were serially diluted with DMSO according to the standard concentration requirements, and then 3 μL of the compound was taken and added to a 96-well plate. 147 μL of PBS was added to each well containing 3 μL of the compound, and the mixed solution was mixed well, and then 50 μL of the mixed solution was taken out and added to a new 96-well plate. The human plasma was taken out of −80° C. refrigerator and thawed by rapid shaking in a 37° C. water bath, and 50 μL of human plasma was added to a 96-well plate containing 50 μL of diluted compounds (the final system was 1% DMSO). […]
After the incubation, the blank group was thawed on ice and transferred to the incubation plate. […] The peak areas of LPA18:2 and internal standard LPA17:0 were detected by LC-MSMS mass spectrometry.
The peak area ratio of LPA18:2 to internal standard LPA17:0 was calculated, and the generation inhibition rate of LPA18:2 was calculated according to the following formula: […]
According to the inhibition rate of different concentrations of the compound, the IC50 values of the compound were calculated for inhibition of ATX enzymatic activity in human plasma.

hERG channel [6] = molecular target: T1, hERG channel (Homo sapiens (Human), UniProt Q12809); assay: cell-based
T1 sequence (Q12809 whole entry): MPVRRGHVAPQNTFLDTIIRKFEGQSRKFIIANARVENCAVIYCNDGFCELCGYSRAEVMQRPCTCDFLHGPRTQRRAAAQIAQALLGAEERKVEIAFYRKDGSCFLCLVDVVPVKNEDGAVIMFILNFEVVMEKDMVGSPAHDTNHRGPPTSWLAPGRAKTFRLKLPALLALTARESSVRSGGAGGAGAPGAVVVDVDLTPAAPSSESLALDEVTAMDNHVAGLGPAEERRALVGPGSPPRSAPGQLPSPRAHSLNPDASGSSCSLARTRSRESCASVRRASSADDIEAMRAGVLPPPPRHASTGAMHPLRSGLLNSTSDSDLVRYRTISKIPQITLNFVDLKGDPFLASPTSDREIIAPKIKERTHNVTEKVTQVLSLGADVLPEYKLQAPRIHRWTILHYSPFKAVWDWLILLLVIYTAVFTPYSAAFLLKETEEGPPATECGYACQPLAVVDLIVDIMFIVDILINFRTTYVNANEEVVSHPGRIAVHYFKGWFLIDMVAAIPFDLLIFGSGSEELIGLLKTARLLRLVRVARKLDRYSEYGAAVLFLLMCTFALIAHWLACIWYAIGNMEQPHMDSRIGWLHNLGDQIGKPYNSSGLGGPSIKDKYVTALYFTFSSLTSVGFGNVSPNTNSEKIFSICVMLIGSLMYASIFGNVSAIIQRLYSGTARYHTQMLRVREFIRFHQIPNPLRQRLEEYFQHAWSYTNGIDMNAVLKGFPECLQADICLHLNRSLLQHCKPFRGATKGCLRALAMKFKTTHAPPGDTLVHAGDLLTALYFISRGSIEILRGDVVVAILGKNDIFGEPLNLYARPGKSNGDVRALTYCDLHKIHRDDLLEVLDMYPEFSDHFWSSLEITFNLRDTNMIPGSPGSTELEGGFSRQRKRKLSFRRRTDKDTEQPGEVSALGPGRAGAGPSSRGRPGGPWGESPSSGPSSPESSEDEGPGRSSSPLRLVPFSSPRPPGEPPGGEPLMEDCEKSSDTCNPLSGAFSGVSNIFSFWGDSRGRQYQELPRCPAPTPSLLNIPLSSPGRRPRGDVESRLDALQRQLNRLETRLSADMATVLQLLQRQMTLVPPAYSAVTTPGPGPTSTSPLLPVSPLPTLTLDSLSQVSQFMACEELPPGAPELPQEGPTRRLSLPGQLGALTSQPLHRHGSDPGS
Procedure: (§2) Inhibitory effect of the compound on hERG was detected using automated electrophysiological patch clamp QPatch. The cells used in this assay were CHO cell lines (supplied by Sophion Bioscience, Denmark) transfected with hERG cDNA and stably expressing hERG channel at cell passage number of P24. The cells were cultured in a medium containing the following components (all purchased from Invitrogen): ham's F12 medium, 10% (v/v) inactivated fetal bovine serum, 100 μg/mL hygromycin B and 100 μg/mL Geneticin. CHO hERG cells were grown in a culture dish containing the above culture solution and cultured in an incubator containing 5% CO2 at 37° C.
(§3) Extracellular buffer (2 mM CaCl2, 1 mM MgCl2, 4 mM KCl, 145 mM NaCl, 10 mM Glucose, 10 mM HEPES, pH: about 7.4, osmotic pressure: about 305 mOsm) and intracellular buffer (5.374 mM CaCl2, 1.75 mM MgCl2, 120 mM KCl, 10 mM HEPES, 5 mM EGTA, 4 mM Na-ATP, pH: about 7.25, osmotic pressure: about 295 mOsm) were prepared. […]
(§4) The assay data were analyzed by Qpatch analysis software supplied by Sophion, Excel, Graphpad Prism and the like.

[7] = Stability assay of human liver microsome; type: in vitro ADME; details: human liver microsomes
Procedure: The stability of human liver microsome was detected by in vitro co-incubation of compounds with human liver microsomes. Test compounds were first prepared as 10 mM stock solutions in DMSO solvent, followed by dilution of the compounds to 0.5 mM using acetonitrile. […] The deep-well plate was taken, […] was added to each well, then 15 μL of pre-warmed 6 mM NADPH solution was added to the plate to start the reaction, and the plate was incubated at 37° C. […] The supernatant was taken after centrifugation, and added with purified water at a ratio of 1:1 for LC-MS/MS detection to obtain the ratio of peak area of compound to peak area of internal standard at each time point. […] T1/2 was calculated using Excel.

Autotaxin enzyme = Autotaxin enzyme (Homo sapiens (Human), UniProt Q13822); details: read-out: IC50 against ATX enzymatic activity; Autotaxin Inhibitor Screening Assay Kit, 37° C., 30 min, OD405
Procedure: The inhibitory activity of the compound against the Autotaxin enzyme was detected using the Autotaxin Inhibitor Screening Assay Kit (Cayman, 700580). The compound to be tested was first prepared into 10 mM stock solution in DMSO solvent, and then serially diluted into 8 concentrations of compound with DMSO. Subsequently, 8 concentrations of compound were diluted to 19× compound working solution (with DMSO content of 1.9%) with an Autotaxin Assay buffer (1×) provided in the kit. Autotaxin Assay Reagent (10×) was taken out and diluted 10-fold with Autotaxin Assay Buffer (1×). The Autotaxin Substrate was taken out, and added with 1.2 mL of Autotaxin Assay Buffer (1×) for dissolving. The mixture was mixed well and then let stand at room temperature. In a 96-well plate, 150 μL of Autotaxin Assay Buffer (1×), 10 μL of diluted 19× compound working solution, 10 μL of Autotaxin Assay Reagent (1×), 20 μL of dissolved Autotaxin Substrate were added into wells at each concentration, and then the mixture was mixed well, incubated at 37° C. on a constant-temperature shaking shaker, and incubated in the dark for 30 min.

hERG channel [8] = molecular target: T1, hERG channel; details: hERG IC50 in μM divided by ATX IC50 in nM as printed
Procedure: as §2, §3, §4

[9] = Solid stability evaluation at 60° C. for 24 h; type: physicochemical
Procedure: The crystal form A of benzenesulfonate of the compound of formula (I) was used as a starting sample, and 100 polymorph screening tests under different conditions were set. The screening method comprises the following steps: adding an anti-solvent, slowly volatilizing, slowly cooling, suspending and stirring (room temperature and 50° C.), circularly heating and cooling, gas-solid permeation, gas-liquid diffusion, inducing and grinding a high polymer. From the X-ray powder diffraction (XRPD) results of the isolated solid, only one polymorph of benzenesulfonate, i.e., the starting form A, was found. A partial evaluation was completed in the salt form screening stage, so only solid stability evaluation at 60° C. for 24 h was performed.

[10] = Polarizing microscope (PLM) image, particle size; type: physicochemical; details: room temperature
From the text: The polarizing microscope data are acquired by an Axio Lab. A1 upright microscope at room temperature.

[11] = Stability of crystal form on storage for 6 months; type: physicochemical; details: 40° C./75% RH; 25° C./60% RH; 2° C. to 8° C.; polyethylene bag + aluminum foil bag
From the text: (the aluminum foil bag is made of light-proof materials and can be protected from light; and the polyethylene bag and the aluminum foil bag are sealed when being packaged).

Solid stability, 1 week = type: physicochemical; details: for Purity (area %): HPLC; for Crystal form change: XRPD
Procedure: The crystal form A of hydrochloride, the crystal form A of fumarate, the crystal form A of benzenesulfonate and the free base crystal form A prepared repeatedly were placed at 25° C./60% RH and 40° C./75% RH for 1 week, and then the physical and chemical stability of the samples were tested by XRPD and HPLC. […] No significant purity decrease or crystal form transformation occurred in any of the other samples after being placed under 2 conditions for 1 week.

[12] = Hygroscopicity by dynamic vapor sorption (DVS); type: physicochemical
Procedure: Dynamic vapor sorption (DVS) curves are acquired on a DVS Intrinsic in SMS (Surface Measurement System). The relative humidity at 25° C. is corrected with the deliquescence points of LiCl, Mg(NO3)2 and KCl.
Hygroscopicity of the crystal form A of hydrochloride, the crystal form A of fumarate, the crystal form A of benzenesulfonate and the free base crystal form A prepared repeatedly was evaluated using a dynamic vapor sorption (DVS) instrument. Starting at 0% relative humidity (0% RH), the test acquired the percentage change of mass of the sample when humidity changed (0% RH to 95% RH to 0% RH) at a constant temperature of 25° C.

[13] = Dynamic solubility in water and three biological vehicles; type: physicochemical; details: for Crystal form change: XRPD of solid; for pH: filtrate
Procedure: The dynamic solubility of the crystal form A of hydrochloride, the crystal form A of fumarate, the crystal form A of benzenesulfonate and the free base crystal form A prepared repeatedly was evaluated in water and three biological vehicles. […] After centrifugation of the samples at each time point (0.45 μm PTFE filter head), the filtrate was determined for HPLC concentration and pH, and the centrifuged solid samples were tested for XRPD.

[14] = Pharmacokinetic assay (crystal form) in mice; type: in vivo; details: male, ICR, mouse, plasma, oral intragastric administration 10 mg/kg
Procedure: as §1, with “in mice” for “in rats”, “used mice” for “used rats”, “were 9” for “were 6”, “male ICR mice” for “male SD rats”, “weighing 20-25” for “weighing 180-240”, “overnight. 9 mice were taken and orally intragastrically administered with 10 mg/kg of the compound.” for “overnight.”

[15] = oral intragastric administration 10 mg/kg
[16] = male, SD, rat, plasma, intravenous injection 1 mg/kg
[17] = male, SD, rat, plasma, oral intragastric administration 10 mg/kg
[18] = SGF, 4 h, listed as Benzenesulfonate Crystal form
[19] = SGF, 24 h, listed as Benzenesulfonate Crystal form

C[C@H](Cc1cnn[nH]1)OCC(=O)N1Cc2cnc(NC3Cc4ccccc4C3)nc2C1 [Compound of formula (I), (R)-2-((1-(1H-1,2,3-triazol-5-yl)propan-2-yl)oxy)-1-(2-((2,3-dihydro-1H-inden-2-yl)amino)-5,7-dihydro-6H-pyrrolo[3,4-d]pyrimidin-6-yl)ethan-1-one]
AUC(0-t) ([1]; intravenous injection 1 mg/kg): 626 ng·h/mL | clearance ([1]; intravenous injection 1 mg/kg): 26.7 mL/min/kg | half-life ([1]; intravenous injection 1 mg/kg): 22.8 min | Vd ([1]; intravenous injection 1 mg/kg, read-out: Vz): 0.88 L/kg | AUC(0-t) [1, 15]: 6370 ng·h/mL | Cmax [1, 15]: 6360 ng/mL | Tmax [1, 15]: 15 min | half-life [1, 15]: 52.2 min | content of TGF-β1 in freshly cryopreserved lung tissue ([2]; ELISA, FIG. 44): significantly lower than that of the vehicle control group | content of TGF-β1 in the bronchoalveolar lavage fluid supernatant ([2]; ELISA, FIG. 44): significantly lower than that of the vehicle control group | weight loss of the animals ([2]; FIG. 43): significantly less than that of the control compound group | clearance (CL) in rats relative to that of the control compound [3]: about ⅙ | AUC(0-t) [3, 16]: 3650 ng·h/mL | clearance [3, 16]: 4.67 mL/min/kg | half-life [3, 16]: 30 min | Vd ([3]; male, SD, rat, plasma, intravenous injection 1 mg/kg, read-out: Vz): 0.21 L/kg | AUC(0-t) [3, 17]: 20700 ng·h/mL | Cmax [3, 17]: 15800 ng/mL | Tmax [3, 17]: 19.8 min | half-life [3, 17]: 154 min | AUC0-t of oral administration relative to the control compound ([3]; oral): 4.2 times | Cmax of oral administration relative to the control compound ([3]; oral): 6.1 times | solubility ([4]; FaSSGF solution, fassgf or other biorelevant, heading: Solubility FaSSGF, FaSSGF, pH 1.6, room temperature overnight): 1.04 mg/mL | solubility ([4]; FeSSIF solution, FeSSIF, pH 5.8, room temperature overnight, read-out: Solubility FeSSIF (pH 5.8)): 260 mg/mL | solubility ([4]; phosphate buffered saline, aqueous buffer, PBS, pH 7.4, room temperature overnight, read-out: Solubility PBS (pH 7.4)): 107 mg/mL | IC50 [5]: 4.7 nM | IC50 (hERG channel [6]): 9.48 µM | T1/2 of the liver microsome stability relative to the control compound [7]: more than 2 times | Remaining percentage of compound after 30 min of incubation (%) ([7]; NADPH, 37° C.): 63.7% | half-life at 1.5 μM ([7]; NADPH, 37° C.): 53.6 min | IC50 (Autotaxin enzyme): 1.59 nM | hERG IC50/ATX IC50 (hERG channel [8]): 9.48/1.59 = 6.0

C[C@H](Cc1cnn[nH]1)OCC(=O)N1Cc2cnc(NC3Cc4ccccc4C3)nc2C1 [Crystal form A of benzenesulfonate]
Purity (area %) [9]: 98.23 area % | Purity/initial purity (%) [9]: 100.0% | Crystal form change ([9]; XRPD): No | particle size [10]: less than 50 μm | crystal form after being stored for 6 months [11]: unchanged | stability after being stored for 6 months [11]: excellent stability | Purity/initial purity (%) (Solid stability, 1 week; 25° C./60% RH): 100.0% | Purity (area %) (Solid stability, 1 week; 25° C./60% RH): 99.35 area % | Crystal form change (Solid stability, 1 week; 25° C./60% RH): No | Purity/initial purity (%) (Solid stability, 1 week; 40° C./75% RH): 99.9% | Purity (area %) (Solid stability, 1 week; 40° C./75% RH): 99.20 area % | Crystal form change (Solid stability, 1 week; 40° C./75% RH): No | After DVS test Whether the crystal form is changed ([12]; 0% RH to 95% RH to 0% RH, 25° C.): No | Hygroscopicity ([12]; DVS, 25° C.): Slightly | Vapor sorption (25° C./80% RH) ([12]; DVS, 25° C., 80% RH): 1.45% | DVS curve vapor sorption ([12]; at 0% RH to 80% RH): less than 1.46% | Risk evaluation ([12]; hygroscopicity evaluation): None | Crystal form change ([13]; SGF, 1 h): No | Crystal form change [13, 18]: Clear | Crystal form change [13, 19]: Clear | pH ([13]; FaSSIF, 1 h, listed as Benzenesulfonate Crystal form): 6.0 | pH ([13]; FaSSIF, 4 h, listed as Benzenesulfonate Crystal form): 6.0 | pH ([13]; FaSSIF, 24 h, listed as Benzenesulfonate Crystal form): 6.0 | pH ([13]; FeSSIF, 1 h, listed as Benzenesulfonate Crystal form): 5.0 | pH ([13]; FeSSIF, 4 h, listed as Benzenesulfonate Crystal form): 5.0 | pH ([13]; FeSSIF, 24 h, listed as Benzenesulfonate Crystal form): 5.0 | pH ([13]; H2O, 1 h, listed as Benzenesulfonate Crystal form): 2.5 | pH ([13]; H2O, 4 h, listed as Benzenesulfonate Crystal form): 2.5 | pH ([13]; H2O, 24 h, listed as Benzenesulfonate Crystal form): 2.5 | pH ([13]; SGF, 1 h, listed as Benzenesulfonate Crystal form): 1.9 | pH [13, 18]: 1.9 | pH [13, 19]: 1.9 | solubility in each system compared with that of the free base crystal form A ([13]; water, SGF, FaSSIF, FeSSIF): significantly improved | AUC(0-t) [14]: 7430 ng·h/mL | Cmax [14]: 6600 ng/mL | Tmax [14]: 30 min | half-life [14]: 71.4 min
